# Assay results as given in US10420831B2, “Inactivation of viruses by delipidation” (priority 2016, dated 2019).
# Where two headings read alike, the source gives them in different places. Marks after values point to notes of the source that are not given here.
# Experiments:
# Type in all cases: cell-based
# [1] = tested on: human influenza virus H1N1 A/WSN/33 strain; conditions: 50 mM MBCD
# PRRSV-RESP strain = experiment: In vitro infectivity of PRRSV, plaque titration on Marc-145 cells; conditions: for In Vitro Infectivity: 60 minutes at 37° C.
# Protocol: The PRRSV are titrated for in vitro infectivity using the following procedure. Using the cell culture and transfer procedures above, Marc-145 cells are suspended in DMEM containing 10% FBS at a final density of 1.5×10^5 cell/mL. Two mL of the Marc-145 cell suspension are added to each well of a 6-well plate, and the plates are incubated overnight at 37° C. with 5% CO2. Virus samples are thawed in a 37° C. water bath, followed by centrifugation at 500×g for 10 minutes at 4° C. A 1/10 dilution series of viruses is prepared and stored at 4° C. until use, using EMEM as the dilution buffer.
# When the Marc-145 cells are at least 90% confluent, the medium is removed, and 0.5 mL dilution buffer and 0.5 mL of the virus dilution are added into each well. For the negative control, 1.0 mL dilution buffer is used. The plates are gently shaken immediately after each dilution is added. Plates are incubated for 60-90 minutes at 37° C. in 5% CO2 and rocked every 15 minutes. Each well of each 6-well plate is then overlaid with 3 mL of a 1:4 mixture of 2.5% low melting point agarose in PBS solution and dilution buffer at 37° C. The plates are incubated at room temperature for 15 minutes to allow the overlay mixture to solidify, and then the plates are incubated at 37° C. with 5% CO2 for 96 hours.
# Plaques are visualized using the following procedure. After the plaques are fully developed (96 hours post-infection), 1 mL 4% paraformaldehyde is added, and the plates are incubated at room temperature for 1 hour. Solubilized agarose is discarded, and 0.5 mL of 0.5% crystal violet is added to each well. The number of plaques is counted after 15 minutes of incubation with the crystal violet and converted to a titer based on the dilution factors.
# Solvent and mock treatments are conducted according to the following procedure. One hundred μL aliquots of the concentrated PRRSV stock at about 1×10^9 PFU/mL are diluted into 900 μL PBS in Eppendorf tubes to achieve a final titer of 1.0-5.0×10^8 PFU/mL. […] Eppendorf tubes are then capped and sealed with parafilm. All the samples are secured in an SHZ-82 constant-temperature orbital air-bath shaker (Changzhou Guohua Appliance Co., China) preheated to 37° C. The solvent- and mock-treated samples are spun at an orbital rotation speed of 220 rpm at 37° C. for the desired time. The respective samples are spun in a micro-centrifuge for 1 minute, and the supernatants containing IFV are transferred to ultracentrifuge tubes. Tubes are centrifuged at 100,000×g (OPTIMA™ L-100XP centrifuge; Beckman Coulter, Inc., Indianapolis Ind.) for 30 minutes to pellet the PRRSV, and the supernatants are discarded. The PRRSV pellets are resuspended in 200 μL PBS and stored at −80° C. until further analyses.
# The protein content of the delipidated and mock-treated PRRSV is determined using a BCA assay (PIERCE™ BCA Protein Assay Kit) according to the manufacturer's instructions. The cholesterol content also is determined using a cholesterol assay (Amplex® Red Cholesterol Assay Kit, Life Technologies, Grand Island, N.Y.) performed according to manufacturer's instruction. In vitro infectivity is measured using the same procedures as set forth above.
# After ultracentrifugation, the mock-treated and delipidated samples are tested for in vitro infectivity in the Marc-145 cells, and protein and cholesterol contents are determined, using the procedures set forth above.
# PRRSV-RESP = experiment: Blind passage assay of delipidated PRRSV on Marc-145 cells; conditions: 100 mM MBCD for 90 minutes
# PRRSV strain ND99-14 = experiment: Inactivation kinetics of PRRSV, live virus TCID50 on MARC145 cells
# Protocol: Inactivation kinetics experiments were conducted using PRRSV strain ND99-14, described in application U.S. Ser. No. 62/296,658, filed Feb. 18, 2016. […] Room temperature is between about 20° C. and about 25° C., and optimally between about 22° C. and about 24° C.
# […] […] Aliquots for each time point were stored at 4° C. and −70° C. until further use.
# After the 24 hour sample was collected, virus was transferred to a new container. […] […] […] Aliquots for each time point were stored at 4° C. and −70° C. until further use.
# Ten-fold serial dilutions (10^−1-10^−9) of mock inactivated and inactivated virus were added to MARC145 cells cultured on 96 well plates. The plates were incubated at 37° C. and 5% CO2 for 96 hours to allow live virus to infect cells. Virus replication was determined by observation of cytopathic effect (CPE) due to virus infection of the MARC145 cells. Each well containing a virus dilution was scored either positive or negative with regards to CPE and the resulting numbers of positive or negatice wells for each dilution were used to determine the TCID50/mL using the Reed-Muench TCID50 calculation. The mock inactivated virus was treated to the same media and temperature conditions as the inactivated virus without the addition of the inactivation agent.
# PRRSV strain SD 11-21 = experiment: Inactivation of vaccine virus stock, TCID50 virus titration; conditions: PRRSV SD 11-21, final 30 mM MBCD in two additions, 48 hours at room temperature
substance,measurement,setting,value
methyl β-cyclodextrin [MBCD],"IFV infectivity reduced, compared to the mock-treatment","[1]; 37° C., 30 minutes, […]",2250 fold
same,PFU/mL,"[1]; IFV, 37° C., 30 minutes",4.0 × 10^5 PFU/mL
same,"less infectious in vitro, compared to the mock treatment","[1]; IFV, 45 minute treatment","over 10,000 fold"
same,PFU/mL,"[1]; IFV, end-over-end rotation at 37° C. for 45 minutes",1.0 × 10^3 PFU/mL
same,titer of delipidated PRRSV sample,PRRSV-RESP strain; 100 mM MBCD for 90 minutes,under the limit of detection
same,In Vitro Infectivity,"PRRSV-RESP strain; PRRSV-RESP, 5 mM MBCD",1.4 × 10^7 PFU/mL
same,In Vitro Infectivity,"PRRSV-RESP strain; PRRSV-RESP, 10 mM MBCD",7.0 × 10^6 PFU/mL
same,In Vitro Infectivity,"PRRSV-RESP strain; PRRSV-RESP, 20 mM MBCD",2.8 × 10^6 PFU/mL
same,In Vitro Infectivity,"PRRSV-RESP strain; PRRSV-RESP, 30 mM MBCD",1.2 × 10^5 PFU/mL
same,PRRSV infectivity reduced,"PRRSV-RESP strain; PRRSV-RESP, 50 mM MBCD, 60 min at 37° C.",about 380 fold
same,In Vitro Infectivity,"PRRSV-RESP strain; PRRSV-RESP, 50 mM MBCD",4.2 × 10^4 PFU/mL
same,plaques detected by the blind passage assay,PRRSV-RESP,no plaques are detected
same,live virus reduced,"PRRSV strain ND99-14; 20 mM MBCD, after 15 minutes of incubation",approximately 2.5 logs
same,PRRS virus titer,"PRRSV strain ND99-14; 20 mM MBCD, room temperature, hour 0.25, samples stored at 4° C.",5.8^a Log10 TCID50/mL
same,PRRS virus titer,"PRRSV strain ND99-14; 20 mM MBCD, room temperature, hour 0.25, samples stored at −70° C.",3.3 Log10 TCID50/mL
same,PRRS virus titer,"PRRSV strain ND99-14; 20 mM MBCD, room temperature, hour 4, samples stored at 4° C.",5.8 Log10 TCID50/mL
same,PRRS virus titer,"PRRSV strain ND99-14; 20 mM MBCD, room temperature, hour 8, samples stored at 4° C.",5.9 Log10 TCID50/mL
same,PRRS virus titer,"PRRSV strain ND99-14; 20 mM MBCD, room temperature, hour 8, samples stored at −70° C.",2.8 Log10 TCID50/mL
same,PRRS virus titer,"PRRSV strain ND99-14; 20 mM MBCD, room temperature, hour 12, samples stored at 4° C.",5.6 Log10 TCID50/mL
same,PRRS virus titer,"PRRSV strain ND99-14; 20 mM MBCD, room temperature, hour 12, samples stored at −70° C.",3.2 Log10 TCID50/mL
same,PRRS virus titer,"PRRSV strain ND99-14; 20 mM MBCD, room temperature, hour 16, samples stored at 4° C.",5.6 Log10 TCID50/mL
same,PRRS virus titer,"PRRSV strain ND99-14; 20 mM MBCD, room temperature, hour 16, samples stored at −70° C.",3.2 Log10 TCID50/mL
same,PRRS virus titer,"PRRSV strain ND99-14; 20 mM MBCD, room temperature, hour 20, samples stored at 4° C.",5.6 Log10 TCID50/mL
same,PRRS virus titer,"PRRSV strain ND99-14; 20 mM MBCD, room temperature, hour 20, samples stored at −70° C.",3.4 Log10 TCID50/mL
same,PRRS virus titer,"PRRSV strain ND99-14; 20 mM MBCD, room temperature, hour 24, samples stored at 4° C.",5.6 Log10 TCID50/mL
same,PRRS virus titer,"PRRSV strain ND99-14; 20 mM MBCD, room temperature, hour 24, samples stored at −70° C.",3.6 Log10 TCID50/mL
same,PRRS virus titer,"PRRSV strain ND99-14; 40 mM MBCD (second 20 mM added at 24 h), hour 30, samples stored at 4° C.",0 Log10 TCID50/mL
same,PRRS virus titer,"PRRSV strain ND99-14; 40 mM MBCD (second 20 mM added at 24 h), hour 30, samples stored at −70° C.",0 Log10 TCID50/mL
same,PRRS virus titer,"PRRSV strain ND99-14; 40 mM MBCD (second 20 mM added at 24 h), hour 36, samples stored at 4° C.",0 Log10 TCID50/mL
same,PRRS virus titer,"PRRSV strain ND99-14; 40 mM MBCD (second 20 mM added at 24 h), hour 36, samples stored at −70° C.",0 Log10 TCID50/mL
same,PRRS virus titer,"PRRSV strain ND99-14; 40 mM MBCD (second 20 mM added at 24 h), hour 42, samples stored at 4° C.",0 Log10 TCID50/mL
same,PRRS virus titer,"PRRSV strain ND99-14; 40 mM MBCD (second 20 mM added at 24 h), hour 42, samples stored at −70° C.",0 Log10 TCID50/mL
same,PRRS virus titer,"PRRSV strain ND99-14; 40 mM MBCD (second 20 mM added at 24 h), hour 48, samples stored at 4° C.",0 Log10 TCID50/mL
same,PRRS virus titer,"PRRSV strain ND99-14; 40 mM MBCD (second 20 mM added at 24 h), hour 48, samples stored at −70° C.",0 Log10 TCID50/mL
same,PRRS virus titer,"PRRSV strain ND99-14; 40 mM MBCD (second 20 mM added at 24 h), hour 56, samples stored at 4° C.",0 Log10 TCID50/mL
same,PRRS virus titer,"PRRSV strain ND99-14; 40 mM MBCD (second 20 mM added at 24 h), hour 56, samples stored at −70° C.",0 Log10 TCID50/mL
same,PRRS virus titer,"PRRSV strain ND99-14; 40 mM MBCD (second 20 mM added at 24 h), hour 64, samples stored at 4° C.",0 Log10 TCID50/mL
same,PRRS virus titer,"PRRSV strain ND99-14; 40 mM MBCD (second 20 mM added at 24 h), hour 64, samples stored at −70° C.",0 Log10 TCID50/mL
same,PRRS virus titer,"PRRSV strain ND99-14; 40 mM MBCD (second 20 mM added at 24 h), hour 72, samples stored at 4° C.",0 Log10 TCID50/mL
same,PRRS virus titer,"PRRSV strain ND99-14; 40 mM MBCD (second 20 mM added at 24 h), hour 72, samples stored at −70° C.",0 Log10 TCID50/mL
same,PRRS virus titer,"PRRSV strain ND99-14; 40 mM MBCD (second 20 mM added at 24 h), hour 84, samples stored at 4° C.",0 Log10 TCID50/mL
same,PRRS virus titer,"PRRSV strain ND99-14; 40 mM MBCD (second 20 mM added at 24 h), hour 84, samples stored at −70° C.",0 Log10 TCID50/mL
same,PRRS virus titer,"PRRSV strain ND99-14; 40 mM MBCD (second 20 mM added at 24 h), hour 96, samples stored at 4° C.",0 Log10 TCID50/mL
same,PRRS virus titer,"PRRSV strain ND99-14; 40 mM MBCD (second 20 mM added at 24 h), hour 96, samples stored at −70° C.",0 Log10 TCID50/mL
same,titer of PRRS virus that could be inactivated,PRRSV strain ND99-14; 40 mM MBCD added in a 2 step process,at least 8 log10 TCID50/mL
same,virus level after second addition of MBCD (in words),"PRRSV strain ND99-14; second addition of 20 mM MBCD at 24 hours, next time point (30 hours)",undetectable levels
same,less virus when stored at −70° C. versus 4° C.,PRRSV strain ND99-14; time point samples with detectable live virus,at least 100 fold
same,live virus in MBCD-inactivated virus solution,PRRSV strain SD 11-21,no live virus was detected
